# System: 941728-121-R-J1-PDC complex spheroid viability
# Test: Anticancer human tumor 941728-121-R-J1-PDC patient-derived lung adenocarcinoma cell line growth inhibition [RAS]
# Conditions: for IC50: curve of first compound; for viability, T/C: stronger effect = lower value
# How it was run: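 Agents were tested in combination matrices in half-log decrements from a top concentration at or near clinical Cmax (10 microM if undetermined). Targets were multi-cell spheroids of tumour lines plus HUVEC and MSC stromal cells.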
# 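Also: spheroids exposed to compounds for 7 days before readout.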
# 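For viability, T/C in this document: 100% = DMSO vehicle control viability.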
compound,measurement,setting,value
C=CC(=O)Nc1cc(Nc2nccc(-c3cn(C)c4ccccc34)n2)c(OC)cc1N(C)CCN(C)C + CCn1c(-c2cc(N3CCN(C)CC3)cnc2C(C)OC)c2c3cc(ccc31)-c1csc(n1)CC(NC(=O)C1CC1C)C(=O)N1CCCC(N1)C(=O)OCC(C)(C)C2,IC50,second compound 0.000949 µM,< 3.16 nM
same,IC50,second compound 0.003 µM,< 3.16 nM
same,IC50,second compound 0.00949 µM,< 3.16 nM
same,IC50,second compound 0.03 µM,< 3.16 nM
same,IC50,second compound 0.0949 µM,< 3.16 nM
same,IC50,second compound 0.3 µM,< 3.16 nM
same,"viability, T/C","second compound 0.000949 µM, first compound 0.00316 µM",29.3%
same,"viability, T/C","second compound 0.000949 µM, first compound 0.01 µM",29.5%
same,"viability, T/C","second compound 0.000949 µM, first compound 0.0316 µM",22.1%
same,"viability, T/C","second compound 0.000949 µM, first compound 0.1 µM",23.4%
same,"viability, T/C","second compound 0.000949 µM, first compound 0.316 µM",24.8%
same,"viability, T/C","second compound 0.000949 µM, first compound 1 µM",14%
same,"viability, T/C","second compound 0.003 µM, first compound 0.00316 µM",25.4%
same,"viability, T/C","second compound 0.003 µM, first compound 0.01 µM",20.8%
same,"viability, T/C","second compound 0.003 µM, first compound 0.0316 µM",17.2%
same,"viability, T/C","second compound 0.003 µM, first compound 0.1 µM",18.8%
same,"viability, T/C","second compound 0.003 µM, first compound 0.316 µM",15.5%
same,"viability, T/C","second compound 0.003 µM, first compound 1 µM",8.05%
same,"viability, T/C","second compound 0.00949 µM, first compound 0.00316 µM",16.4%
same,"viability, T/C","second compound 0.00949 µM, first compound 0.01 µM",15%
same,"viability, T/C","second compound 0.00949 µM, first compound 0.0316 µM",14.4%
same,"viability, T/C","second compound 0.00949 µM, first compound 0.1 µM",14.4%
same,"viability, T/C","second compound 0.00949 µM, first compound 0.316 µM",13.7%
same,"viability, T/C","second compound 0.00949 µM, first compound 1 µM",9.82%
same,"viability, T/C","second compound 0.03 µM, first compound 0.00316 µM",15.8%
same,"viability, T/C","second compound 0.03 µM, first compound 0.01 µM",14.8%
same,"viability, T/C","second compound 0.03 µM, first compound 0.0316 µM",15.7%
same,"viability, T/C","second compound 0.03 µM, first compound 0.1 µM",14.6%
same,"viability, T/C","second compound 0.03 µM, first compound 0.316 µM",10.7%
same,"viability, T/C","second compound 0.03 µM, first compound 1 µM",12%
same,"viability, T/C","second compound 0.0949 µM, first compound 0.00316 µM",12.9%
same,"viability, T/C","second compound 0.0949 µM, first compound 0.01 µM",14.7%
same,"viability, T/C","second compound 0.0949 µM, first compound 0.0316 µM",14.6%
same,"viability, T/C","second compound 0.0949 µM, first compound 0.1 µM",16.5%
same,"viability, T/C","second compound 0.0949 µM, first compound 0.316 µM",10.3%
same,"viability, T/C","second compound 0.0949 µM, first compound 1 µM",13.9%
same,"viability, T/C","second compound 0.3 µM, first compound 0.00316 µM",13.1%
same,"viability, T/C","second compound 0.3 µM, first compound 0.01 µM",14.1%
same,"viability, T/C","second compound 0.3 µM, first compound 0.0316 µM",15%
same,"viability, T/C","second compound 0.3 µM, first compound 0.1 µM",12.4%
same,"viability, T/C","second compound 0.3 µM, first compound 0.316 µM",10.7%
same,"viability, T/C","second compound 0.3 µM, first compound 1 µM",11.6%
CC1(C)CCC(Nc2ncc(C(F)(F)F)c(-c3c[nH]c4c(P(C)(C)=O)c(C#N)ccc34)n2)CN1 (stereo unspecified) + CCn1c(-c2cc(N3CCN(C)CC3)cnc2C(C)OC)c2c3cc(ccc31)-c1csc(n1)CC(NC(=O)C1CC1C)C(=O)N1CCCC(N1)C(=O)OCC(C)(C)C2,IC50,second compound 0.000949 µM,< 0.949 nM
same,IC50,second compound 0.003 µM,< 0.949 nM
same,IC50,second compound 0.00949 µM,< 0.949 nM
same,IC50,second compound 0.03 µM,< 0.949 nM
same,IC50,second compound 0.0949 µM,< 0.949 nM
same,IC50,second compound 0.3 µM,< 0.949 nM
same,"viability, T/C","second compound 0.000949 µM, first compound 0.000949 µM",26.8%
same,"viability, T/C","second compound 0.000949 µM, first compound 0.003 µM",28.2%
same,"viability, T/C","second compound 0.000949 µM, first compound 0.00949 µM",23.5%
same,"viability, T/C","second compound 0.000949 µM, first compound 0.03 µM",27.3%
same,"viability, T/C","second compound 0.000949 µM, first compound 0.0949 µM",32.7%
same,"viability, T/C","second compound 0.000949 µM, first compound 0.3 µM",24.8%
same,"viability, T/C","second compound 0.003 µM, first compound 0.000949 µM",19.8%
same,"viability, T/C","second compound 0.003 µM, first compound 0.003 µM",18.5%
same,"viability, T/C","second compound 0.003 µM, first compound 0.00949 µM",16.6%
same,"viability, T/C","second compound 0.003 µM, first compound 0.03 µM",22.6%
same,"viability, T/C","second compound 0.003 µM, first compound 0.0949 µM",19.5%
same,"viability, T/C","second compound 0.003 µM, first compound 0.3 µM",17.1%
same,"viability, T/C","second compound 0.00949 µM, first compound 0.000949 µM",14%
same,"viability, T/C","second compound 0.00949 µM, first compound 0.003 µM",10.3%
same,"viability, T/C","second compound 0.00949 µM, first compound 0.00949 µM",11.3%
same,"viability, T/C","second compound 0.00949 µM, first compound 0.03 µM",14.4%
same,"viability, T/C","second compound 0.00949 µM, first compound 0.0949 µM",12.3%
same,"viability, T/C","second compound 0.00949 µM, first compound 0.3 µM",12.2%
same,"viability, T/C","second compound 0.03 µM, first compound 0.000949 µM",10.8%
same,"viability, T/C","second compound 0.03 µM, first compound 0.003 µM",9.52%
same,"viability, T/C","second compound 0.03 µM, first compound 0.00949 µM",9.8%
same,"viability, T/C","second compound 0.03 µM, first compound 0.03 µM",10.9%
same,"viability, T/C","second compound 0.03 µM, first compound 0.0949 µM",9.73%
same,"viability, T/C","second compound 0.03 µM, first compound 0.3 µM",11.7%
same,"viability, T/C","second compound 0.0949 µM, first compound 0.000949 µM",9.88%
same,"viability, T/C","second compound 0.0949 µM, first compound 0.003 µM",9.37%
same,"viability, T/C","second compound 0.0949 µM, first compound 0.00949 µM",10%
same,"viability, T/C","second compound 0.0949 µM, first compound 0.03 µM",11.1%
same,"viability, T/C","second compound 0.0949 µM, first compound 0.0949 µM",8.77%
same,"viability, T/C","second compound 0.0949 µM, first compound 0.3 µM",11.9%
same,"viability, T/C","second compound 0.3 µM, first compound 0.000949 µM",9.86%
same,"viability, T/C","second compound 0.3 µM, first compound 0.003 µM",9.92%
same,"viability, T/C","second compound 0.3 µM, first compound 0.00949 µM",9.46%
same,"viability, T/C","second compound 0.3 µM, first compound 0.03 µM",8.06%
same,"viability, T/C","second compound 0.3 µM, first compound 0.0949 µM",9.53%
same,"viability, T/C","second compound 0.3 µM, first compound 0.3 µM",10.4%
CC1(C)CCC(Nc2ncc(C(F)(F)F)c(-c3c[nH]c4c(P(C)(C)=O)c(C#N)ccc34)n2)CN1 (stereo unspecified) + C#Cc1c(F)ccc2cc(O)cc(-c3ncc4c(N5CC6CCC(C5)N6)nc(OCC56CCCN5CC(F)C6)nc4c3F)c12,IC50,second compound 0.0316 µM,> 300 nM
same,IC50,second compound 0.1 µM,> 300 nM
same,IC50,second compound 0.316 µM,< 0.949 nM
same,IC50,second compound 1 µM,< 0.949 nM
same,IC50,second compound 3.16 µM,< 0.949 nM
same,IC50,second compound 10 µM,< 0.949 nM
same,"viability, T/C","second compound 0.0316 µM, first compound 0.000949 µM",71.4%
same,"viability, T/C","second compound 0.0316 µM, first compound 0.003 µM",58.2%
same,"viability, T/C","second compound 0.0316 µM, first compound 0.00949 µM",53.7%
same,"viability, T/C","second compound 0.0316 µM, first compound 0.03 µM",48%
same,"viability, T/C","second compound 0.0316 µM, first compound 0.0949 µM",49.9%
same,"viability, T/C","second compound 0.0316 µM, first compound 0.3 µM",54.6%
same,"viability, T/C","second compound 0.1 µM, first compound 0.000949 µM",68.5%
same,"viability, T/C","second compound 0.1 µM, first compound 0.003 µM",53.6%
same,"viability, T/C","second compound 0.1 µM, first compound 0.00949 µM",55.5%
same,"viability, T/C","second compound 0.1 µM, first compound 0.03 µM",52.7%
same,"viability, T/C","second compound 0.1 µM, first compound 0.0949 µM",50.5%
same,"viability, T/C","second compound 0.1 µM, first compound 0.3 µM",49.4%
same,"viability, T/C","second compound 0.316 µM, first compound 0.000949 µM",51.5%
same,"viability, T/C","second compound 0.316 µM, first compound 0.003 µM",46.7%
same,"viability, T/C","second compound 0.316 µM, first compound 0.00949 µM",38.5%
same,"viability, T/C","second compound 0.316 µM, first compound 0.03 µM",45.4%
same,"viability, T/C","second compound 0.316 µM, first compound 0.0949 µM",44.4%
same,"viability, T/C","second compound 0.316 µM, first compound 0.3 µM",49.6%
same,"viability, T/C","second compound 1 µM, first compound 0.000949 µM",33.8%
same,"viability, T/C","second compound 1 µM, first compound 0.003 µM",40.2%
same,"viability, T/C","second compound 1 µM, first compound 0.00949 µM",35.6%
same,"viability, T/C","second compound 1 µM, first compound 0.03 µM",36.3%
same,"viability, T/C","second compound 1 µM, first compound 0.0949 µM",38.6%
same,"viability, T/C","second compound 1 µM, first compound 0.3 µM",38.9%
same,"viability, T/C","second compound 3.16 µM, first compound 0.000949 µM",30.9%
same,"viability, T/C","second compound 3.16 µM, first compound 0.003 µM",30.8%
same,"viability, T/C","second compound 3.16 µM, first compound 0.00949 µM",33.6%
same,"viability, T/C","second compound 3.16 µM, first compound 0.03 µM",35.1%
same,"viability, T/C","second compound 3.16 µM, first compound 0.0949 µM",34.4%
same,"viability, T/C","second compound 3.16 µM, first compound 0.3 µM",34.5%
same,"viability, T/C","second compound 10 µM, first compound 0.000949 µM",23%
same,"viability, T/C","second compound 10 µM, first compound 0.003 µM",30.1%
same,"viability, T/C","second compound 10 µM, first compound 0.00949 µM",24.3%
same,"viability, T/C","second compound 10 µM, first compound 0.03 µM",24.9%
same,"viability, T/C","second compound 10 µM, first compound 0.0949 µM",27.5%
same,"viability, T/C","second compound 10 µM, first compound 0.3 µM",26%

# — PubChem BioAssay AID2060896 (Molecular Pharmacology Branch, DTP, NCI, 2025)
